Test system: pulmonary endothelium of small PAs
Test: Endothelial Ca2+ signals in small PAs exposed ex vivo to acute hypoxia-reoxygenation (HR)
Type: cell-based
Conditions: GSK219 100 nM; small PAs from TRPV4fl/fl mice, 1 h hypoxia + 10 min reoxygenation
Description: Ca^2+ imaging in Pas: Ca^2+ imaging in small Pas was performed as previously described.8 Fourth-order, small (~50 μm diameter) Pas (see FIG. 1B) were dissected from left lungs in cold HEPES-buffered physiological salt solution (HEPES-PSS; 10 mM HEPES, 134 mM NaCl, 6 mM KCl, 1 mM MgCl2 hexahydrate, 2 mM CaCl2) dihydrate, and 7 mM dextrose; pH adjusted to 7.4 using 1 M NaOH). Ca^2+ imaging studies were performed in en face preparations of small Pas incubated with Fluo-4 AM (10 μM) and pluronic acid (0.04%) at 37° C. for 10 minutes. For studies after sham or lung IR surgery, small Pas were immediately dissected out after the indicated reperfusion time and incubated en face with Fluo-4 AM. […] Fluo-4 was excited using a 488-nm solid-state laser, and emitted fluorescence was captured using a 525/36-nm band-pass filter. […] Baseline Ca^2+ signaling activity was recorded in the absence of CPA.
Analysis of baseline Ca^2+ signaling activity and TRPV4 sparklet activity in the pulmonary endothelium: Ca^2+ images acquired using the procedure described above were analyzed with custom-designed SparkAn software (source code available at https://github.com/vesselman/SparkAn).^10 Fractional fluorescence (F/F0) traces were obtained by placing a 1.7 μm2 (5×5 pixels) region of interest (ROI) at the peak event amplitude. […] Overall baseline Ca^2+ signals were automatically detected using a threshold of 1.25 F/F0. […]

For `O=C(NC1(c2ccccc2)CC1)c1c(CN2CCC(N3CCCCC3)CC2)c(-c2cccc(C(F)(F)F)c2)nc2cc(Br)ccc12` [GSK219, GSK2193874], the “HR-induced increase in endothelial Ca2+ signals” value was “completely abolished”.

Source: patent US20260284082A1, “TARGETING THE PANX1-P2Y2R-TRPV4 PATHWAY TO TREAT LUNG ISCHEMIA-REPERFUSION INJURY” (UNIVERSITY OF VIRGINIA PATENT FOUNDATION, priority 2023, published 2026)
